Test results as given in US20260176295A1, “PHOSPHONATE CONJUGATES AND USES THEREOF” (The Translational Genomics Research Institute, priority 2019, published 2026).
Where two headings read alike, the source gives them in different places. Values belong to the molecule of their own block, whether it stands above or below them.

Tests used:
[1] = in vivo; assay type: in vivo; settings: 2 mg/kg single intravenous bolus; for AUC(0-inf) / AUC(0-t) / C0 / clearance / half-life / Vd / Kp: mouse; for Vd: read-out: VSS; for Kp: read-out: bone to plasma ratios (AUClast)
Procedure: For extended time points (>24 hrs), BID dosing was done 8 hr apart.
The study was performed using sparse design to obtain composite profile (n=3/time point) as summarized in the table1. Blood and whole bone with marrow were collected at predetermined time points. At each time point, about 120 μL of blood was collected by retro-orbital sinus puncture into a labeled microfuge tube containing 200 mM K2EDTA solution (20 μL per mL of blood). The blood samples were processed within 30 minutes to obtain the plasma samples. At respective time points, blood samples were collected and animals were euthanized to harvest whole femur bone (bone with marrow). All plasma and bone with marrow samples were stored at −80° C.
The plasma and bone with bone marrow homogenate samples were analyzed using a fit-for purpose LC-MS/MS method with a lower limit of quantification (LLOQ) of 1.00 ng/ml (plasma) and 11.0 ng/g (bone). In some instances, bone marrow was separated from bone and analyzed independently. The pharmacokinetic parameters of the drugs were calculated using the non-compartmental analysis tool of validated Phoenix® WinNonlin® software (version 8.0).

[2] = target: T1, RON Kinase Enzyme (Homo sapiens, UniProt Q04912); experiment: Kinase ADP-Glo inhibition assay; assay type: biochemical; settings: 25 μM ATP
T1 construct: purchased Promega V3921
T1 sequence (Q04912 25-1400): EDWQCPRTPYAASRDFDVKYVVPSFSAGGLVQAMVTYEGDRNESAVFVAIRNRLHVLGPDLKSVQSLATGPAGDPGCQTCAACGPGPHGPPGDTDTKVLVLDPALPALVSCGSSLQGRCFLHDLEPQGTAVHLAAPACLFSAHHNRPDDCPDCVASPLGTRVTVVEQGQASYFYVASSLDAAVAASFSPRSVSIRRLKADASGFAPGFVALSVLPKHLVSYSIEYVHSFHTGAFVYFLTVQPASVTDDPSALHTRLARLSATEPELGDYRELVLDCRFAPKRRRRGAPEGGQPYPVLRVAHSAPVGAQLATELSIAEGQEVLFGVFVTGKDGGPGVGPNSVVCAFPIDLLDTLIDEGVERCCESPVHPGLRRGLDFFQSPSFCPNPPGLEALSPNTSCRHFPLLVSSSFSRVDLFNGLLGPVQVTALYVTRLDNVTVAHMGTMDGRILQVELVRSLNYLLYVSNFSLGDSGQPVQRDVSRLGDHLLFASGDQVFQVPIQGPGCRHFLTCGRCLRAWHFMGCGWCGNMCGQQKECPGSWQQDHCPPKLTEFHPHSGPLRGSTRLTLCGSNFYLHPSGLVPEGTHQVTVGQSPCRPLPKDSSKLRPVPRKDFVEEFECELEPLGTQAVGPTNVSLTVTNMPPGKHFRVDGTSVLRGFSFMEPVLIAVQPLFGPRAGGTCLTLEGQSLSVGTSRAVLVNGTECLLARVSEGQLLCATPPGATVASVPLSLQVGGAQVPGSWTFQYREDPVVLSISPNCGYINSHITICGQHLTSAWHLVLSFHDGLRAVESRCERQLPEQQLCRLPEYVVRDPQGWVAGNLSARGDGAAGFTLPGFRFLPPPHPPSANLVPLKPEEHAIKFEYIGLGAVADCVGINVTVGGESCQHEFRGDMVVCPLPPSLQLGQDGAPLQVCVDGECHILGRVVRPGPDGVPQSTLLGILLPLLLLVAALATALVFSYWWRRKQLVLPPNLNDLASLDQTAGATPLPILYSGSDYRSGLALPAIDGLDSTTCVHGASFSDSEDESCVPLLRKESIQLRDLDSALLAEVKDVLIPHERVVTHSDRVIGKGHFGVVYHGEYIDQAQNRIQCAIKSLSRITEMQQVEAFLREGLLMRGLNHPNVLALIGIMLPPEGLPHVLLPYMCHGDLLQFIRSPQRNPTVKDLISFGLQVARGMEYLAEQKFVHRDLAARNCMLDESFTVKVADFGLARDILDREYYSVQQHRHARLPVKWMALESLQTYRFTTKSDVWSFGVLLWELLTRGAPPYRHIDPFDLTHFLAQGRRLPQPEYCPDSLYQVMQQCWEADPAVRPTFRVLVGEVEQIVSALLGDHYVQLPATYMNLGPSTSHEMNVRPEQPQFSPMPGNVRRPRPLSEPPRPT
Procedure: • Assay Buffer • 40 mM Tris-HCl pH7.5, 20 mM MgCl2, 0.1 mg/mL BSA • RON Kinase Enzyme System (Promega #: V3921) • Axltide Substrate • RON Kinase Enzyme • ADP-Glo™ Assay (Promega #: V9101) • ATP, 10 mM • ADP-Glo™ Reagent • Kinase Detection Reagent • 384-well white assay plates
A ten point serial dilution of compound was prepared at 5× concentration in assay buffer with the final assay concentrations starting at 30 μM, 10 μM, 3 μM, 1 μM . . . 0 μM. Enzyme, substrate, and ATP were used at 25 ng, 200 ng and 25 μM, respectively. The assay plate was set up by mixing the components in a total reaction volume of 10 μL per well. The plate was centrifuged gently for 10 seconds and incubated at room temperature (RT) for 60 minutes in the dark. The ADP-Glo Reagent and kinase detection reagent were added and incubated as recommended. The reaction was quantified by measuring luminescence on the Perkin Elmer Envision plate reader. Data was analyzed using Graphpad Prism 7 software.

[3] = target: RON/MST1R (Homo sapiens, UniProt Q04912); experiment: Ron tyrosine kinase inhibition assay (10 dose IC50 mode, 10 μM ATP); assay type: biochemical; settings: read-out: Compound IC50
Sequence of RON/MST1R (Q04912 25-1400): as above
Procedure: Compounds were tested in 10 dose IC50 mode with 3-fold serial dilution starting at 100 μM. […] Reactions were carried out at 10 μM ATP. Data pages include raw data, % Enzyme activity (relative to DMSO controls) and curve fits. Curve fits were performed where the enzyme activities at the highest concentration of compounds were less than 65%.
IC50 values may be determined using GraphPad Prism 5 software. The data may be entered as an X-Y plot into the software as percent inhibition for each concentration of the drug. The concentration values of the drug may be log transformed and the nonlinear regression may be carried out using the “sigmoidal dose-response (variable slope)” option within the GraphPad software to model the data and calculate IC50 values. The IC50 values reported are the concentration of drug at which 50% inhibition was reached.

[4] = in vivo, Plasma, male Swiss Albino mice
[5] = male, Swiss Albino, in vivo, iv, 2 mg/kg, Bone with Bone marrow
[6] = male, Swiss Albino, in vivo, iv, 2 mg/kg, Plasma

SMILES: CCOc1ccn(-c2ccc(F)c(OP(=O)(O)O)c2)c(=O)c1C(=O)Nc1ccc(Oc2ccnc(N)c2Cl)c(F)c1 [Compound 12, sodium 5-(3-((4-((2-amino-3-chloropyridin-4-yl)oxy)-3-fluorophenyl)carbamoyl)-4-ethoxy-2-oxopyridin-1(2H)-yl)-2-fluorophenyl phosphate]
AUC(0-inf) [1, 4]: 963 ng·h/mL
AUC(0-t) [1, 4]: 959 ng·h/mL
C0 [1, 4]: 4680 ng/mL
clearance [1, 4]: 34.6 mL/min/kg
half-life [1, 4]: 1.17 h
Vd [1, 4]: 0.879 L/kg
IC50 [2]: 58 nM

SMILES: CCOc1ccn(-c2ccc(F)cc2)c(=O)c1C(=O)Nc1ccc(Oc2ccnc(NC(P(=O)(OCC)OCC)P(=O)(OCC)OCC)c2Cl)c(F)c1 [Compound 9, tetraethyl (((3-chloro-4-(4-(4-ethoxy-1-(4-fluorophenyl)-2-oxo-1,2-dihydropyridine-3-carboxamido)-2-fluorophenoxy)pyridin-2-yl)amino)methylene)bis(phosphonate)]
IC50 [2]: 33800 nM

SMILES: CCOc1ccn(-c2ccc(F)c(OCCC(P(=O)(O)O)P(=O)(O)O)c2)c(=O)c1C(=O)Nc1ccc(Oc2ccnc(N)c2Cl)c(F)c1 [Compound 11, sodium (3-(5-(3-((4-((2-amino-3-chloropyridin-4-yl)oxy)-3-fluorophenyl)carbamoyl)-4-ethoxy-2-oxopyridin-1(2H)-yl)-2-fluorophenoxy)propane-1,1-diyl)bis(phosphonate)]
IC50 [2]: 1270 nM

SMILES: Nc1nccc(Oc2ccc(NC(=O)c3c(OCP(=O)([O-])[O-])ccn(-c4ccc(F)cc4)c3=O)cc2F)c1Cl.[Na+].[Na+] [Compound 10, (((3-((4-((2-amino-3-chloropyridin-4-yl)oxy)-3-fluorophenyl)carbamoyl)-1-(4-fluorophenyl)-2-oxo-1,2-dihydropyridin-4-yl)oxy)methyl)phosphonate]
accumulation in bone [1]: accumulated in the bone
AUCinf ([1]; Bone with Bone marrow): 2920 h*ng · h/mL
AUC(0-t) [1, 5]: 2420 ng·h/mL
clearance [1, 5]: 11.4 mL/min/kg
half-life [1, 5]: 1.61 h
Vd [1, 5]: 1.5 L/kg
AUC(0-t) [1, 6]: 9830 ng·h/mL
clearance [1, 6]: 3.36 mL/min/kg
half-life [1, 6]: 0.987 h
Vd [1, 6]: 0.179 L/kg
Kp ([1]; in vivo): 0.25
AUC(0-inf) ([1]; in vivo, Plasma): 9910 ng·h/mL
C0 ([1]; in vivo, Plasma): 16000 ng/mL
IC50 [2]: 547 nM

SMILES: CCOc1ccn(-c2ccc(F)c(COP(=O)(O)O)c2)c(=O)c1C(=O)Nc1ccc(Oc2ccnc(N)c2Cl)c(F)c1 [Compound 13, sodium 5-(3-((4-((2-amino-3-chloropyridin-4-yl)oxy)-3-fluorophenyl)carbamoyl)-4-ethoxy-2-oxopyridin-1(2H)-yl)-2-fluorobenzyl phosphate]
IC50 [2]: 2430 nM

Continued, values first:

AUC(0-inf) ([1]; Plasma): 1690 ng·h/mL
AUC(0-t) ([1]; Plasma): 1690 ng·h/mL
C0 ([1]; Plasma): 3610 ng/mL
clearance ([1]; Plasma): 19.7 mL/min/kg
half-life ([1]; Plasma): 3.42 h
Vd ([1]; Plasma): 1.42 L/kg
AUC(0-t) ([1]; bone (without marrow), Bone only): 296 ng·h/mL
Kp ([1]; bone / plasma): 0.17
IC50 [3]: 17.2 nM
IC50 [2]: 18 nM
SMILES: CCOc1ccn(-c2ccc(F)cc2)c(=O)c1C(=O)Nc1ccc(Oc2ccnc(N)c2Cl)c(F)c1 [BMS-777607, N-(4-((2-amino-3-chloropyridin-4-yl)oxy)-3-fluorophenyl)-4-ethoxy-1-(4-fluorophenyl)-2-oxo-1,2-dihydropyridine-3-carboxamide, reference compound]

IC50 [3]: 13400 nM
IC50 [2]: 13400 nM
SMILES: CCOc1ccn(-c2ccc(F)cc2)c(=O)c1C(=O)Nc1ccc(Oc2ccnc(NC(P(=O)(O)O)P(=O)(O)O)c2Cl)c(F)c1 [Compound 1, (((3-chloro-4-(4-(4-ethoxy-1-(4-fluorophenyl)-2-oxo-1,2-dihydropyridine-3-carboxamido)-2-fluorophenoxy)pyridin-2-yl)amino)methylene)diphosphonic acid]
